Laboratory results reported in paper PMC4892435, “Structure of astrotactin-2: a conserved vertebrate-specific and perforin-like membrane protein involved in neuronal development” (Open Biology, 2016).

Biological target: T1, ASTN-2_701-1288 (Homo sapiens, UniProt O75129)
T1 construct: gene ASTN2; endodomain, residues 701-1288 in methods (crystal construct EGF-3 to C-terminus is printed 649-1288; borders may mix numberings); secreted from HEK293T, hexahistidine
T1 sequence (O75129 701-1288 isoform O75129-2): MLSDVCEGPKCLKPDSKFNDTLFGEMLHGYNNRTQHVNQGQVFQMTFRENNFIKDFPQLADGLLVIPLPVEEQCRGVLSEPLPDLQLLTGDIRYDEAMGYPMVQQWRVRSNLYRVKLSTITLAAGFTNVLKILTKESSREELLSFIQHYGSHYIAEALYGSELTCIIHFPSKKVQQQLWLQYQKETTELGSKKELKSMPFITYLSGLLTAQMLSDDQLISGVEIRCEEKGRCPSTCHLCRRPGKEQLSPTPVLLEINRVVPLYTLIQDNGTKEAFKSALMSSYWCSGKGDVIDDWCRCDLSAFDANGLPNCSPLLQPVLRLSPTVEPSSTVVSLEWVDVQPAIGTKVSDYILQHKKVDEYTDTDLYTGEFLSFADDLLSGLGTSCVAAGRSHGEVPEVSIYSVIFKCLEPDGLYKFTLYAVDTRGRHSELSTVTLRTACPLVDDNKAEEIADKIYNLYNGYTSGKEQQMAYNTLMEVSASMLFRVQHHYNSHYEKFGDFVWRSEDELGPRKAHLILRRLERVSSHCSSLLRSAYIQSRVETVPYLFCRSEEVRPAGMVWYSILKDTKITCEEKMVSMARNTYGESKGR
Assay: SPR, Biacore T200, immobilised biotinylated ligand
Type: binding
Conditions: pH 7.5, 20 °C, 150 mM NaCl; labelled compound (biotin, immobilised); one Kd printed jointly for PIP3 and PIP2; construct of this run not stated

Row | Kd | Substance
1 | 30 µM | PtdIns(3,4,5)P3 (C-39B6a)
2 | 30 µM | PtdIns(4,5)P2 (C-45B6a)
